Source: US11072632B2, “Inhibitors of 17β-HSD1, 17β-HSD3 and 17β-HSD10” (UNIVERSITÉ LAVAL, priority 2011, dated 2021)
Read-outs that look alike come from different tables or passages of the source.

Assays:
17β-HSD1 = molecular target: T1, 17β-HSD1 (Homo sapiens, UniProt P14061); assay: Inhibition of 17β-HSD1 in T-47D intact cells (E1 into E2); type: cell-based; conditions: T47D; for inhibition at 1 µM: read-out: Inhibition (1 μM)
T1 construct: endogenous in cells; host or cells: T-47D
T1 sequence (P14061 1-328): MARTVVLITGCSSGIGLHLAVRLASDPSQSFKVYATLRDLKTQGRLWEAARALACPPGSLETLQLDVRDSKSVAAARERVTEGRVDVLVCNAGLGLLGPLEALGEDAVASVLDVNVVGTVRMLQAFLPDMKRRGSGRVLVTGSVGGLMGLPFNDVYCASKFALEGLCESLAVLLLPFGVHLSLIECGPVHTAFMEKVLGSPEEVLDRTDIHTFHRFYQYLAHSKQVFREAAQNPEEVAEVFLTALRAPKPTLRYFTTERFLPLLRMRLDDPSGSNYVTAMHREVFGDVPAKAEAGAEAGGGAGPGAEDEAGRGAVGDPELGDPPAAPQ
Experimental: T-47D cells were seeded in a 24-well plate (3000 cells/well) in medium supplemented with insulin (50 ng/mL) and 5% dextran-coated charcoal treated FBS rather than 10% FBS to remove remaining hormones. […] Each inhibitor was assessed in triplicate. After incubation, the culture medium was removed and labelled steroids (E1 and E2) extracted with 1 mL of diethyl ether. The organic phases were separated and evaporated to dryness using nitrogen. Residues were dissolved in dichloromethane and dropped on silica gel thin layer chromatography plates (EMD Chemicals Inc., Gibbstown, N.J., USA) and eluted with a toluene/acetone (4:1) solvent system. Substrate [^14C]-E1 and metabolite [^14C]-E2 were identified by comparison with reference steroids and quantified using a Storm 860 system (Molecular Dynamics, Sunnyvale, Calif., USA).
T-47D cells were seeded in a 24-well plate (3000 cells/well) in 990 μL of medium supplemented with insulin (50 ng/mL) and 5% dextran-coated charcoal-treated FBS, which was used rather than untreated 10% FBS, to remove the remaining steroid hormones. […] The final concentration of ethanol in the well was adjusted to 0.1%. Additionally, 5 μL of a solution of [^14C]-estrone (American Radiolabeled Chemicals, Inc., St. Louis, Mo., USA) was added to obtain a final concentration of 60 nM. […] After incubation, the culture medium was removed and labeled steroids (E1 and E2) were extracted with 1 mL of diethyl ether. The organic phases were evaporated to dryness with nitrogen. Residues were dissolved in dichloromethane and dropped on silica gel thin layer chromatography plates (EMD Chemicals Inc., Gibbstown, N.J., USA) and eluted with toluene/acetone (4:1) as solvent system. Substrate [^14C]-E1 and metabolite [^14C]-E2 were identified by comparison with reference steroids (E1 and E2) and quantified using the Storm 860 system (Molecular Dynamics, Sunnyvale, Calif., USA).

17β-HSD10 = molecular target: T2, 17β-HSD10 (Homo sapiens, UniProt Q99714); assay: Inhibition of 17β-HSD10 in stably transfected HEK-293 whole cells (E2 into E1); type: cell-based; conditions: [14C]-E2 (1 μM) into [14C]-E1, intact HEK-293 cells, 1 μM; for inhibition at 1 µM: HEK293, read-out: Inhibition (%) at 1 μM
T2 construct: expressed in transfected cells
T2 sequence (Q99714 1-261): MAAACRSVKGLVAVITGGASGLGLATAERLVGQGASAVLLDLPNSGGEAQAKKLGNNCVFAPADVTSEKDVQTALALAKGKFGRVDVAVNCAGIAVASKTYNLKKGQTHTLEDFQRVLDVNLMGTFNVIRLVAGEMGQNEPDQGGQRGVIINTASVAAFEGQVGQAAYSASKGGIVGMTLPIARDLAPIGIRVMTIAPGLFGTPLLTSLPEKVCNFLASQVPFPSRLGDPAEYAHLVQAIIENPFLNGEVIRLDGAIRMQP

17β-HSD3 [1] = molecular target: T3, 17β-HSD3 (Homo sapiens, UniProt P37058); assay: Inhibition of 17β-HSD3 in homogenated HEK-293 cells; type: biochemical; conditions: Table 3; for inhibition at 0.01 µM: read-out: Homo (%) (0.01 μM); for inhibition at 0.1 µM: read-out: Homo (%) (0.1 μM)
T3 construct: expressed in transfected cells; host or cells: HEK-293 (homogenate)
T3 sequence (P37058 1-310): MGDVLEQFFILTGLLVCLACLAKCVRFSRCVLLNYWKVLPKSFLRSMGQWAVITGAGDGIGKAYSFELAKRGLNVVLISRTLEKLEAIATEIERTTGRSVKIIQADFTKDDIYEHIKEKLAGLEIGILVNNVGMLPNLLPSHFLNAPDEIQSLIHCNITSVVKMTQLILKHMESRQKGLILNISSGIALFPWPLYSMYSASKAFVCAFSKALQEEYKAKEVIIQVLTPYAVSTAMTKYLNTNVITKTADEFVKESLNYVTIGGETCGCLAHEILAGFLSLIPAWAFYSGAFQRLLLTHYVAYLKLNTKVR

17β-HSD3 [2] = molecular target: T3, 17β-HSD3; assay: Inhibition of 17β-HSD3 in intact HEK-293 cells; type: cell-based; conditions: for Intact cells (%), tested at 1 μM: Table 3, footnote b; for inhibition at 0.1 µM: HEK293, 1 h, Table 3, read-out: Intact cells (%) (0.1 μM)
[3] = Table 2 (17β-HSD1), [14C]-E1 60 nM, T-47D intact cells, 0.1 μM, read-out: Inhibition (0.1 μM)
[4] = Table 2 (17β-HSD1), [14C]-E1 60 nM, T-47D intact cells, 1 μM

C[C@]12CC[C@@H]3c4ccc(CCI)cc4CC[C@H]3[C@@H]1C[C@H](Cc1cccc(C(N)=O)c1)[C@@H]2O [Compound 10, 3-{[(16β,17β)-17-hydroxy-3-(2-iodoethyl)estra-1(10),2,4-trien-16-yl]methyl}benzamide]
inhibition at 0.1 µM (17β-HSD1; read-out: Inhibition (0.1 μM)): 7%

CC1CN(CC2(O)CCC3(C)C(CCC4C5CCC(=O)C5(C)CCC43)C2)C(C)CN1Cc1cccnc1 (stereo not drawn) [Compound 11g, (3α,5α)-3-{[(2ξ,5ξ)-2,5-dimethyl-4-(pyridin-3-ylmethyl)piperazin-1-yl]methyl}-3-hydroxyandrostan-17-one]
Inhibition (%) at 1 μM (17β-HSD10): 21% | Homo (%) (0.01 μM) (17β-HSD3 [1]): 17% | Homo (%) (0.1 μM) (17β-HSD3 [1]): 47% | Intact cells (%), tested at 1 μM (17β-HSD3 [2]): N/A (58)^b %

C[C@]12CC[C@](O)(CN3CCN(S(=O)(=O)c4ccccc4C(F)(F)F)CC3)C[C@@H]1CC[C@@H]1[C@@H]2CC[C@]2(C)C(=O)CC[C@@H]12 [Compound 14b, (3α,5α)-3-hydroxy-3-[(4-{[2-(trifluoromethyl)phenyl]sulfonyl}piperazin-1-yl)methyl]androstan-17-one]
inhibition at 1 µM (17β-HSD10): 32% | inhibition at 0.01 µM (17β-HSD3 [1]): 45% | inhibition at 0.1 µM (17β-HSD3 [1]): 92% | inhibition at 0.1 µM (17β-HSD3 [2]): 45%

C[C@]12CC[C@](O)(CN3CCN(Cc4cccc(Cl)c4)CC3)C[C@@H]1CC[C@@H]1[C@@H]2CC[C@]2(C)C(=O)CC[C@@H]12 [Compound 10e, (3α,5α)-3-{[4-(3-chlorobenzyl)piperazin-1-yl]methyl}-3-hydroxyandrostan-17-one]
Inhibition (%) at 1 μM (17β-HSD10): 21% | Homo (%) (0.01 μM) (17β-HSD3 [1]): 26% | Homo (%) (0.1 μM) (17β-HSD3 [1]): 85% | Intact cells (%), tested at 1 μM (17β-HSD3 [2]): N/A (75)^b %

C[C@]12CC[C@@H]3c4ccc(CBr)cc4CC[C@H]3[C@@H]1C[C@H](Cc1cccc(C(N)=O)c1)[C@@H]2O [III, 3-{[(16β,17β)-3-(bromomethyl)-17-hydroxyestra-1,3,5(10)-trien-16-yl]methyl}benzamide]
inhibition at 0.01 µM (17β-HSD1; read-out: Inhibition % (0.01 μM)): 20% | inhibition at 0.1 µM (17β-HSD1; read-out: Inhibition % (0.1 μM)): 36% | inhibition at 0.1 µM (17β-HSD1; read-out: Inhibition (0.1 μM)): 19% | inhibition at 1 µM (17β-HSD1): 66%

C[C@]12CC[C@](O)(CN3CCN(Cc4cccc(C(F)(F)F)c4)CC3)C[C@@H]1CC[C@@H]1[C@@H]2CC[C@]2(C)C(=O)CC[C@@H]12 [Compound 10a, (3α,5α)-3-hydroxy-3-({4-[3-(trifluoromethyl)benzyl]piperazin-1-yl}methyl)androstan-17-one]
inhibition at 1 µM (17β-HSD10): 34% | inhibition at 0.01 µM (17β-HSD3 [1]): 51% | inhibition at 0.1 µM (17β-HSD3 [1]): 88% | inhibition at 0.1 µM (17β-HSD3 [2]): 52%

COc1cccc(CN2CC(C)N(C[C@@]3(O)CC[C@@]4(C)[C@@H](CC[C@@H]5[C@@H]4CC[C@]4(C)C(=O)CC[C@@H]54)C3)CC2C)c1 (stereo partly drawn) [Compound 11f, (3α,5α)-3-hydroxy-3-{[(2ξ,5ξ)-4-(3-methoxybenzyl)-2,5-dimethylpiperazin-1-yl]methyl}androstan-17-one]
inhibition at 1 µM (17β-HSD10): 21% | inhibition at 0.01 µM (17β-HSD3 [1]): 19% | inhibition at 0.1 µM (17β-HSD3 [1]): 87% | inhibition at 0.1 µM (17β-HSD3 [2]): 50%

CN(C)Cc1ccc2c(c1)CC[C@@H]1[C@@H]2CC[C@]2(C)[C@@H](O)[C@@H](Cc3cccc(C(N)=O)c3)C[C@@H]12 [Compound 40a, 3-{[(16β,17β)-3-[(dimethylamino)methyl]-17-hydroxyestra-1,3,5(10)-trien-16-yl]methyl}benzamide]
inhibition at 0.1 µM (17β-HSD1; [3]): 12% | inhibition at 1 µM (17β-HSD1; [4]): 49%

CNC(=O)Cc1ccc2c(c1)CC[C@@H]1[C@@H]2CC[C@]2(C)[C@@H](O)[C@@H](Cc3cccc(C(N)=O)c3)C[C@@H]12 [Compound 32, 3-{[(16β,17β)-17-hydroxy-3-[2-(methylamino)-2-oxoethyl]estra-1(10),2,4-trien-16-yl]methyl}benzamide]
inhibition at 0.1 µM (17β-HSD1; read-out: Inhibition (0.1 μM)): 5% | inhibition at 1 µM (17β-HSD1): 15%

C[C@]12CC[C@@H]3c4ccc(CCc5ccccc5)cc4CC[C@H]3[C@@H]1C[C@H](Cc1cccc(C(N)=O)c1)[C@@H]2O [Compound 19, 3-{[(16β,17β)-17-hydroxy-3-(2-phenylethyl)estra-1(10),2,4-trien-16-yl]methyl}benzamide]
inhibition at 0.1 µM (17β-HSD1; read-out: Inhibition (0.1 μM)): 13%

C[C@]12CC[C@@H]3c4ccc(CN5CCCC5)cc4CC[C@H]3[C@@H]1C[C@H](Cc1cccc(C(N)=O)c1)[C@@H]2O [Compound 40c, 3-{[(16β,17β)-17-hydroxy-3-(pyrrolidin-1-ylmethyl)estra-1,3,5(10)-trien-16-yl]methyl}benzamide]
inhibition at 0.1 µM (17β-HSD1; [3]): 1% | inhibition at 1 µM (17β-HSD1; [4]): 28%

C[C@]12CC[C@@H]3c4ccc(OCCBr)cc4CC[C@H]3[C@@H]1C[C@H](Cc1cccc(C(N)=O)c1)[C@@H]2O [Compound 15, 3-{[(16β,17β)-3-(2-bromoethoxy)-17-hydroxyestra-1(10),2,4-trien-16-yl]methyl}benzamide]
inhibition at 0.1 µM (17β-HSD1; [3]): 39% | inhibition at 1 µM (17β-HSD1; [4]): 81%

C[C@]12CC[C@@H]3c4ccc(CCCl)cc4CC[C@H]3[C@@H]1C[C@H](Cc1cccc(C(N)=O)c1)[C@@H]2O [Compound 9, 3-{[(16β,17β)-3-(2-chloroethyl)-17-hydroxyestra-1(10),2,4-trien-16-yl]methyl}benzamide]
inhibition at 0.1 µM (17β-HSD1; read-out: Inhibition (0.1 μM)): 55%

C[C@]12CC[C@@H]3c4ccc(CCCBr)cc4CC[C@H]3[C@@H]1C[C@H](Cc1cccc(C(N)=O)c1)[C@@H]2O [Compound 25, 3-{[(16β,17β)-3-(3-bromopropyl)-17-hydroxyestra-1(10),2,4-trien-16-yl]methyl}benzamide]
inhibition at 0.1 µM (17β-HSD1; read-out: Inhibition (0.1 μM)): 37% | inhibition at 1 µM (17β-HSD1): 82%

C[C@]12CC[C@@H]3c4ccc(C(=O)N5CCCC5)cc4CC[C@H]3[C@@H]1C[C@H](Cc1cccc(C(N)=O)c1)[C@@H]2O [Compound 41c, 3-{[(16β,17β)-17-hydroxy-3-(pyrrolidin-1-ylcarbonyl)estra-1,3,5(10)-trien-16-yl]methyl}benzamide]
inhibition at 0.1 µM (17β-HSD1; read-out: Inhibition (0.1 μM)): 0% | inhibition at 1 µM (17β-HSD1): 13%

C[C@]12CC[C@@H]3c4ccc(CCCO)cc4CC[C@H]3[C@@H]1C[C@H](Cc1cccc(C(N)=O)c1)[C@@H]2O [Compound 24, 3-{[(16β,17β)-17-hydroxy-3-(3-hydroxypropyl)estra-1(10),2,4-trien-16-yl]methyl}benzamide]
inhibition at 0.1 µM (17β-HSD1; [3]): 16%

C[C@]12CC[C@](O)(CN3CCN(C(=O)c4ccc(C(F)(F)F)cc4)CC3)C[C@@H]1CC[C@@H]1[C@@H]2CC[C@]2(C)C(=O)CC[C@@H]12 [Compound 12e, (3α,5α)-3-hydroxy-3-[(4-{[4-(trifluoromethyl)phenyl]carbonyl}piperazin-1-yl)methyl]androstan-17-one]
inhibition at 0.01 µM (17β-HSD3 [1]): 22% | inhibition at 0.1 µM (17β-HSD3 [1]): 84% | inhibition at 0.1 µM (17β-HSD3 [2]): 56%
